Nine compounds from US20250066329A1, “PIPERIDINYLPYRIDINYLCARBONITRILE DERIVATIVES AS INHIBITORS OF GLUTAMINYL-PEPTIDE CYCLOTRANSFERASE AND GLUTAMINYL-PEPTIDE CYCLOTRANSFERASE LIKE PROTEIN” (Boehringer Ingelheim International GmbH, priority 2023, published 2025) can be followed below.

Where two headings read alike, the source gives them in different places.

In one series the target is T1, QPCTL (Homo sapiens, UniProt Q9NXS2).
T1 construct: made in house
The experiment in a line: Assay A: biochemical QPCTL activity assay (MALDI-TOF MS, CD47 peptide substrate). Particulars: 0.5 nM enzyme, 10 μM CD47 peptide substrate; read-out: Inhibition of QPCTL: IC50. The procedure: (§1) QPCT or QPCTL dependent conversion of N-terminal glutamine to pyroglutamate of CD47 was monitored via MALDI-TOF MS. Test compounds were dissolved in 100% DMSO and serially diluted into clear 1,536-well microtiter plates. Enzymatic reactions were set up in assay buffer containing 20 mM Tris pH 7.5, 0.1 mM TCEP, 0.01% BSA, and 0.001% Tween20. […] The plates were incubated for 10 min in a humidified incubator at 24° C. Subsequently, 2.5 μL of CD47 peptide substrate surrogate (^19[…]^33) was added to each well (final concentration: 10 μM for QPCTL/20 μM for QPCT). The plates were mixed for 30 sec at 1,000 rpm and subsequently incubated for 40 min in a humidified incubator at 24° C. […] The plates were sealed with an adhesive foil, mixed for 30 s at 1,000 rpm and stored at room temperature until preparation of the MALDI target plates. […] QPCT or QPCTL activity was monitored by calculating the ratio between product and internal standard signals followed by normalization to high (100% activity) and low (0% activity) controls. Determination of compound potencies was obtained by fitting the dose-response data to a four-parameter logistical equation.

In the next series the target is T2, QPCT (Homo sapiens, UniProt Q16769).
T2 construct: purchased Origine (OriGene) TP700028
Kind of series: Assay A: biochemical QPCT activity assay (MALDI-TOF MS, CD47 peptide substrate). To be noted: 0.5 nM enzyme, 20 μM CD47 peptide substrate; read-out: Inhibition of QPCT: IC50. The method, then: as §1

Series [1] deals with SIRPα signalling induced by Raji cells. Kind of series: Assay B: SIRPα signalling assay using Raji cells. The format is cell-based. To be noted: Homo sapiens, read-out: Inhibition of SIRPα signalling induced by Raji cells: IC50. The procedure:
(§2) Two cell types are independently used: the Raji cell line (lymphoblast-like human cell line derived from B lymphocytes from a Burkitt's lymphoma patient in 1963) and A549 cells (adenocarcinomic human alveolar basal epithelial cells).
(§3) Test compounds were dissolved in 100% DMSO and serially diluted into a white 384-well microtiter cell culture plate (PerkinElmer #60076780 in case of Raji assay; PDL-coated plates Greiner #781945 in case of A549 assay). 5000 Raji cells (ATCC #CC86) or 5000 A549 cells (ATCC #CCL-185) in Assay Complete Cell Plating reagent 30 (DiscoverX 93-0563R30B) were added per well. The assay plate was incubated for 48 h at 37° C., 95% humidity and 5% CO2. 15000 reporter cells (Jurkat PathHunter SIRPαV1, DiscoverX #93-1135C19) were added to each well, and the plate was incubated for 5 h at 37° C., 95% humidity and 5% CO2. Bioassay reagent 1 of the PathHunter Bioassay detection kit (DiscoverX 93-0001) was added to each well of the plate using a multichannel pipette followed by a 15 min incubation at room temperature. Afterwards bioassay reagent 2 was added followed by 60 min incubation at room temperature (incubation in the dark). The analysis of the data was performed using the luminescence signal generated by beta-galactosidase in the PathHunter reporter cell line. The luminescence measurement was done using a Pherastar Multi-Mode Reader. Dose-response curves & IC50 data were calculated with 4-parameter sigmoidal dose response formula.

The test system of series [2] is SIRPα signalling induced by A549 cells. Kind of series: Assay B: SIRPα signalling assay using A549 cells. Particulars: Homo sapiens, read-out: Inhibition of SIRPα signalling induced by A549 cells: IC50. It is filed as cell-based. The method, then: as §2, §3
A short description of series [3]: Assay C: permeability in CACO-2 cells. It is filed as in vitro ADME. Particulars: human, pH 7.2; for efflux ratio at 2 h: Caco-2, permeability B-A/permeability A-B; for Papp A→B at 2 h: Caco-2, apical to basolateral. The method, then:
Caco-2 cells (1-2×10^5 cells/1 cm^2 area) are seeded on filter inserts (Costar transwell polycarbonate or PET filters, 0.4 µm pore size) and cultured (DMEM) for 10 to 25 days. Compounds are dissolved in appropriate solvent (like DMSO, 1-20 mM stock solutions). […] The transport solution (TL) is applied to the apical or basolateral donor side for measuring A-B or B-A permeability (3 filter replicates), respectively. Samples are collected at the start and end of experiment from the donor and at various time intervals for up to 2 hours also from the receiver side for concentration measurement by HPLC-MS/MS or scintillation counting. Sampled receiver volumes are replaced with fresh receiver solution.
Efflux ratio (ER)=permeability B-A/permeability A-B

[4] abbreviates: Raji cells, 48 h compound incubation, PathHunter SIRPαV1 reporter cells.
The mark [5] stands for this setting: A549 cells, 48 h compound incubation, PathHunter SIRPαV1 reporter cells.

T2 sequence (Q16769 29-361): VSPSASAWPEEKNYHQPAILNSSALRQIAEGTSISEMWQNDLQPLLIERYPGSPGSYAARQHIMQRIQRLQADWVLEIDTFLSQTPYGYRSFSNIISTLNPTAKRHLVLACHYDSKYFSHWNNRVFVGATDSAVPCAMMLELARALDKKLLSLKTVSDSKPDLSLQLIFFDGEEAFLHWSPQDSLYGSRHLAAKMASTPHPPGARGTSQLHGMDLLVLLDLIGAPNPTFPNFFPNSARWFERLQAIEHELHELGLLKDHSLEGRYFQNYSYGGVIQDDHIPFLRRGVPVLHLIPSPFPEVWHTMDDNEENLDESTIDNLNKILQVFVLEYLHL
T1 sequence (Q9NXS2 whole entry): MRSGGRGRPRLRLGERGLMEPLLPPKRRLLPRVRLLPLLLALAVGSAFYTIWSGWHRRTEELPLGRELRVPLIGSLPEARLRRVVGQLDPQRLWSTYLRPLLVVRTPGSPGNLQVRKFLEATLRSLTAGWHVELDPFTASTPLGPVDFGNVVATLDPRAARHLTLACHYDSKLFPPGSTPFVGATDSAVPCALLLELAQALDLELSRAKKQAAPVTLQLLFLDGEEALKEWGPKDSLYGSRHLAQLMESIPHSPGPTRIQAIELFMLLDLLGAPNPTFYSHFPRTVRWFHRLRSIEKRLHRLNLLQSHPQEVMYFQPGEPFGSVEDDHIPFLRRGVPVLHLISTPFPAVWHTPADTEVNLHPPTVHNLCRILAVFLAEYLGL

In the case of `Cn1cnnc1[C@@H]1CCN(c2c(C#N)cc(C(F)(F)F)nc2-c2ccc(F)nc2)[C@@H](C2CC2)C1` (racemic) [Example 2, (rac)-3-[trans-2-cyclopropyl-4-(4-methyl-4H-1,2,4-triazol-3-yl)piperidin-1-yl]-6′-fluoro-6-(trifluoromethyl)-[2,3′-bipyridine]-4-carbonitrile], the IC50 was found to be 2 nM on QPCTL, 2 nM at QPCT, 66 nM in series [1] (setting [4]) and 41 nM in series [2] (setting [5]). Besides, the efflux ratio at 2 h in series [3] amounted to 6.1. In series [3], the Papp A→B at 2 h worked out at 13 ×10⁻⁶ cm/s.
As to `Cn1cnnc1[C@@H]1CCN(c2c(C#N)cc(C(F)(F)F)nc2-c2cnc3nn(C(C)(C)C)cc3c2)[C@@H](C2CC2)C1` (racemic) [Example 3], the IC50 turned out to be 1 nM at QPCTL, 1 nM on QPCT, 11 nM in series [1] (setting [4]) and 11 nM in series [2] (setting [5]). The efflux ratio at 2 h in series [3] turned out to be 39.1. The Papp A→B at 2 h in series [3] was determined as 1.1 ×10⁻⁶ cm/s.
For the compound `C[C@@H]1C[C@H](c2nncn2C)CCN1c1c(C#N)ccnc1-c1ccc(F)nc1` (racemic) [Example 11], the IC50 worked out at 3 nM at QPCTL, 27 nM on QPCT and 89 nM in series [1] (setting [4]).
`Cn1cnnc1C1CCN(c2c(C#N)cc(C(F)(F)F)nc2-c2ccc(F)nc2)C2(CC2)C1` (racemic) [Example 17]: the IC50 on QPCTL was determined as 3 nM; at QPCT, 13 nM; in series [1] (setting [4]), 246 nM; in series [2] (setting [5]), 86 nM. In addition, the efflux ratio at 2 h in series [3] is 10.4. In series [3], the Papp A→B at 2 h came out at 5.1 ×10⁻⁶ cm/s.
As for `Cn1cnnc1[C@@H]1CCN(c2c(C#N)cc(C(F)(F)F)nc2-c2ccc(F)nc2)[C@@H](C2CC2)C1` [Example 1, 3-[(2R,4R)-2-cyclopropyl-4-(4-methyl-4H-1,2,4-triazol-3-yl)piperidin-1-yl]-6′-fluoro-6-(trifluoromethyl)-[2,3′-bipyridine]-4-carbonitrile], the IC50 at QPCTL was found to be 1 nM; at QPCT, 2 nM; in series [1] (setting [4]), 27 nM; in series [2] (setting [5]), 27 nM. Besides, the efflux ratio at 2 h in series [3] came out at 4.4. The compound further registered an apical-to-basolateral permeability (Papp A→B) at 2 h in series [3] of 17 ×10⁻⁶ cm/s.
Take `Cc1cnnn1C1CCN(c2ncccc2-c2ccc(F)nc2)CC1` [Example 3]: the IC50 on QPCTL stood at 52 nM; at QPCT it was 482 nM; in series [1] (setting [4]) it was 2740 nM; in series [2] (setting [5]), 921 nM. For the same compound, in series [3], the efflux ratio at 2 h was 0.8. This compound also displayed a Papp A→B at 2 h in series [3] of 93 ×10⁻⁶ cm/s.
For the compound `C[C@H]1C[C@H](c2nncn2C)CCN1c1c(C#N)cc(C(F)(F)F)nc1-c1ccc(F)nc1` [Example 4, 6′-fluoro-3-[(2S,4R)-2-methyl-4-(4-methyl-4H-1,2,4-triazol-3-yl)piperidin-1-yl]-6-(trifluoromethyl)-[2,3′-bipyridine]-4-carbonitrile], the IC50 on QPCTL worked out at 6 nM; on QPCT, 74 nM; in series [1] (setting [4]), 925 nM. Also, in series [3], the efflux ratio at 2 h was 4.6. Also, the Papp A→B at 2 h in series [3] was found to be 15 ×10⁻⁶ cm/s.
Regarding `C[C@H]1C[C@H](c2nncn2C)CCN1c1c(C#N)ccnc1-c1ccc(F)nc1` [Example 5, 6′-fluoro-3-[(2S,4R)-2-methyl-4-(4-methyl-4H-1,2,4-triazol-3-yl)piperidin-1-yl]-[2,3′-bipyridine]-4-carbonitrile], the IC50 amounted to 1 nM on QPCTL, 2 nM on QPCT, 48 nM in series [1] (setting [4]) and 57 nM in series [2] (setting [5]). Also, the efflux ratio at 2 h in series [3] was 5. In series [3], this compound came in with a Papp A→B at 2 h of 3.6 ×10⁻⁶ cm/s.
As for `Cn1cnnc1C1CCN(c2ncccc2-c2ccc(F)nc2)CC1` [SEN177, reference compound], the IC50 in series [1] (Raji, 48 h) is 1360 nM; in series [2] (A549, 48 h) it was 214 nM.
